In brackets after ≈: the same amount, converted by molar mass. Several values for one entry are separate records, joined by “and”; a condition that tells them apart may be missing. Equal entries are not always repeated.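 Cultured in 96-well plates, cells were exposed to test compound for 48 hours across five concentrations. GI50 = concentration required for 50% inhibition of growth. TGI denotes the concentration required for complete inhibition of growth.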
Experiments:
Experiment in all cases: DTP human tumour cell line panel, 48 h
[1] = system: UACC-62 melanoma
[2] = system: KM12 colon
[3] = system: COLO 205 colon
[4] = system: SK-MEL-2 melanoma
[5] = system: OVCAR-3 ovarian
[6] = system: SF-539 CNS
[7] = system: A498 renal
[8] = system: PC-3 prostate
[9] = system: ACHN renal
[10] = system: HS 578T breast

| SMILES | TGI [1] [µM] | TGI [2] | TGI [3] [µM] | TGI [4] [µM] | TGI [5] [µM] | TGI [6] [µM] | TGI [7] [µM] | TGI [8] [µM] | TGI [9] [µM] | TGI [10] [µM] | GI50 [1] | GI50 [2] | GI50 [4] | GI50 [8] [µM] | GI50 [9] | GI50 [10] | GI50 [5] | GI50 [6] [µM] | GI50 [7] | GI50 [3] [µg/mL] |
| --- | --- | --- | --- | --- | --- | --- | --- | --- | --- | --- | --- | --- | --- | --- | --- | --- | --- | --- | --- | --- |
| O=S1(=O)C(=C(c2ccccc2)c2ccccc2)S(=O)(=O)c2ccccc21 | > 100 | > 100 µM | > 100 | > 100 | > 100 | 73.3 | > 100 |  |  |  |  |  |  |  |  |  |  |  |  |  |
| NC(Cc1cc(I)c(Oc2ccc(O)c(I)c2)c(I)c1)C(=O)O (centres undefined) | > 100 | > 100 µM | > 100 | 41 | > 100 |  | 92.6 | > 100 | > 100 | > 100 |  |  |  |  |  |  |  |  |  |  |
| O=C(O)c1ccccc1/C=C1\Cc2cc3c(cc2C1=O)CCC3 | 57.8 | > 100 µM | 44.8 | 55.4 | > 100 | 80.4 | 80.1 |  | > 100 |  |  |  |  |  |  |  |  |  |  |  |
| CN(CC(=O)Nc1ccccc1C(=O)O)c1ccccc1 |  | > 100 µM |  |  | > 100 | > 100 | > 100 | > 100 | > 100 | > 100 |  |  |  |  |  |  |  |  |  |  |
| COC(=O)C(C)NP(=O)(OCc1cccc(Cn2cnc3c(N)ncnc32)c1)Oc1ccccc1 (centres undefined) | > 100 | > 100 µM |  | > 100 | > 100 | > 100 | > 100 | > 100 | > 100 | > 100 | 56.3 µM | 68.2 µM | > 100 µM | > 100 | > 100 µM | 32.8 µM | 43 µM | > 100 | > 100 µM |  |
| CCN(CC)c1ccc(Cl)c2c1C(O)(C(C)C)C2(C)C (centres undefined) |  | 28.4 µM | 28.9 | 29.4 | 25.2 | 34.2 | 35.7 |  | 31.3 |  |  |  |  |  |  |  |  |  |  |  |
| C(=C\c1cc[n+](CCc2ccccc2)cc1)/c1ccccc1 | 22.9 | 18.2 µM | 25.6 | 55.2 | 26.5 | 50.5 |  | > 100 | > 100 | 54.6 |  |  |  |  |  |  |  |  |  |  |
| Cc1nn(C(=O)Cc2ccccc2)c2c1C(c1ccc(/C=C/c3ccccc3)cc1)SC(N)=N2 (centres undefined) | > 100 | > 100 µM | > 100 |  |  | > 100 | > 100 | > 100 | > 100 | > 100 |  |  |  |  |  |  |  |  |  |  |
| CC(=O)Nc1ccc2c(c1)C(=O)c1ccccc1-2 | > 100 | > 100 µM | > 100 |  | > 100 | > 100 |  |  | > 100 |  |  |  |  |  |  |  |  |  |  |  |
| N#CCC(=O)N/N=C\C(O)C(O)C(O)C(O)CO (centres undefined) | > 100 | > 100 µM |  | > 100 | > 100 | > 100 | > 100 | > 100 | > 100 | > 100 |  |  |  |  |  |  |  |  |  |  |
| Cc1csc(=Nc2ccccc2)n1CCC(O)(P(=O)(O)O)P(=O)(O)O | > 100 | > 100 µM | > 100 |  | > 100 | > 100 |  | > 100 | > 100 | > 100 |  |  |  |  |  |  |  |  |  |  |
| CC(=O)n1c2ccc(Br)cc2c2nc3ccccc3nc21 | > 100 | > 100 µM | > 100 | > 100 | > 100 | > 100 |  | > 100 | > 100 |  |  |  |  |  |  |  |  |  |  |  |
| CC(C)(C)OC(=O)CC(NC(=O)OCc1ccccc1)NC(=O)OC(C)(C)C (centres undefined) |  |  |  |  |  |  |  |  |  |  | 57.2 µg/mL | 40.3 µg/mL | 48.1 µg/mL |  | 51.5 µg/mL | 85.4 µg/mL | 62.7 µg/mL |  | 76.4 µg/mL | 50.6 (≈ 128 µM) |
| O=c1c2sc3ccccc3sc=2c(=O)c2c(Cl)c(Cl)c(Cl)c(Cl)c12 | > 100 | > 100 µM | > 100 | > 100 | > 100 |  | > 100 | > 100 | > 100 | > 100 |  |  |  |  |  |  |  |  |  |  |
| COC(=O)C1(CCCCl)CCCN1C(=O)OC(C)(C)C (centres undefined) | > 100 | > 100 µM | > 100 | > 100 | > 100 |  |  | > 100 | > 100 |  |  |  |  |  |  |  |  |  |  |  |
| O=C(c1c(F)c(F)c(F)c(F)c1F)n1c(=S)n(C(=O)c2c(F)c(F)c(F)c(F)c2F)c2ccccc21 | > 100 | > 100 µM | > 100 | > 100 |  | > 100 |  | > 100 | > 100 | > 100 |  |  |  |  |  |  |  |  |  |  |
| COC(=O)c1c(C)cccc1C1CN=NC12Cc1cc(C)c(C)cc1C2=O (centres undefined) | > 100 | > 100 µM | > 100 | > 100 | > 100 | > 100 |  | > 100 | > 100 | > 100 |  |  |  |  |  |  |  |  |  |  |
| Cc1cnc2[nH]c(-c3cccc4ccccc34)cc(=O)c2c1 | > 100 | 0.25 µM and 1.45 µM | 0.00496 | > 100 |  |  | 0.00286 | > 100 | 64.6 | > 100 |  |  |  |  |  |  |  |  |  |  |
| Cc1cc2nnn(C3CCCCO3)c2cc1C (centres undefined) | > 100 | > 100 µM | > 100 | > 100 | > 100 | > 100 |  | > 100 | > 100 | > 100 |  |  |  |  |  |  |  |  |  |  |
| CCN(C(=O)N[C@@H](CC(C)C)C(=O)NCC(=O)OC)c1ccccc1 | 97.1 | > 100 µM | > 100 | > 100 | > 100 | > 100 |  | > 100 | > 100 |  |  |  |  |  |  |  |  |  |  |  |
| CCOC(=O)c1cn(-c2ccc([N+](=O)[O-])cc2)c(=S)n2c1nc1ccccc12 | > 100 | > 100 µM | 48.5 | 76.7 | > 100 | > 100 | 87.7 | > 100 | > 100 |  |  |  |  |  |  |  |  |  |  |  |
| COc1cc(Nc2nc3cc(C)ccc3nc2-c2ccccc2)cc(OC)c1OC | 63.6 | > 100 µM | 43.7 | 45.3 | 41.8 |  | > 100 |  | > 100 |  |  |  |  |  |  |  |  |  |  |  |
| Cc1ccc2c(c1C)CC1(Cc3ccc(C)c(C)c3C1=O)C2=O (centres undefined) | > 100 | > 100 µM | > 100 | > 100 | > 100 | > 100 |  | > 100 | > 100 | > 100 |  |  |  |  |  |  |  |  |  |  |
| COc1ccc(OC)c(/C=C2/C(=O)N=C(NC(C)=O)N2C)c1 | > 100 | > 100 µM | > 100 | > 100 | > 100 | > 100 |  | > 100 | > 100 | > 100 |  |  |  |  |  |  |  |  |  |  |

Source: PubChem BioAssay (NCI)
